Laboratory results: patent US6399051B2, “Method and agents for permanently styling hair, with a base consisting of N,N-disubstituted mercaptoacetamides” (priority 1997, dated 2002)

Legend:
[1] = 20 min at 50° C., relative to glycerol monothioglycolate solution pH 9 = 100%; for Standardized Wave Stability WSN pH = 7: waving solution pH 7, 87 mmol reducing agent/100 g; for Standardized Wave Stability WSN pH = 8: waving solution pH 8, 87 mmol reducing agent/100 g; for Standardized Wave Stability WSN pH = 9: waving solution pH 9, 87 mmol reducing agent/100 g

CN(C)C(=O)CS [Mercaptoacetamide 1, N,N-Dimethylmercaptoacetamide]
Standardized Wave Stability WSN pH = 7 [1]: 81%
Standardized Wave Stability WSN pH = 8 [1]: 98%
Standardized Wave Stability WSN pH = 9 [1]: 98%

CCN(CC)C(=O)CS [Mercaptoacetamide 2, N,N-Diethylmercaptoacetamide]
Standardized Wave Stability WSN pH = 7 [1]: 83%
Standardized Wave Stability WSN pH = 8 [1]: 98%
Standardized Wave Stability WSN pH = 9 [1]: 106%

CCCCN(C)C(=O)CS [Mercaptoacetamide 3, N-Butyl-N-methylmercaptoacetamide]
Standardized Wave Stability WSN pH = 7 [1]: 63%
Standardized Wave Stability WSN pH = 8 [1]: 67%
Standardized Wave Stability WSN pH = 9 [1]: 87%
pKa (pKa determination (H2O)): 7.873

CCN(CCO)C(=O)CS [Mercaptoacetamide 4, N-Ethyl-N-2′-hydroxyethylmercaptoacetamide]
pKa (pKa determination (H2O)): 7.604

Thiolactic acid [reference compound]
Standardized Wave Stability WSN pH = 7 [1]: 57%
Standardized Wave Stability WSN pH = 8 [1]: 50%
Standardized Wave Stability WSN pH = 9 [1]: 70%
